Test: xn = mol fraction of the nth substance listed
Conditions: 101 kPa

CN1CCCC1=O + CCCC[P+](C)(CCCC)CCCC.COS(=O)(=O)[O-]
x2 = 0
Conditions	speed of sound [m/s]	viscosity [mPa·s]
293.15 K	1570	1.9
298.15 K	1566	1.66
303.15 K	1552	1.49
308.15 K	1527	1.38
313.15 K	1518	1.3
318.15 K	1497	1.21
323.15 K	1491	1.15

CCCC[P+](C)(CCCC)CCCC.COS(=O)(=O)[O-] + CN1CCCC1=O
Conditions	speed of sound [m/s]	viscosity [mPa·s]
293.15 K, x1 = 0.056	1574	9.6
293.15 K, x1 = 0.0914	1580	19.6
293.15 K, x1 = 0.1311	1585	28
293.15 K, x1 = 0.1773	1588	43
293.15 K, x1 = 0.2318	1590	67
293.15 K, x1 = 0.2971	1587	100
293.15 K, x1 = 0.3764	1582	138
293.15 K, x1 = 0.4752	1578	188
293.15 K, x1 = 0.6014	1575	290
293.15 K, x1 = 0.7129	1573	440
293.15 K, x1 = 0.8515	1568	580
293.15 K, x1 = 0.9022	1566	630
293.15 K, x1 = 0.9468	1565	680
293.15 K, x1 = 1	1564	730
298.15 K, x1 = 0.0914	1576	13.2
298.15 K, x1 = 0.1311	1580	18
298.15 K, x1 = 0.1773	1584	23.7
298.15 K, x1 = 0.2318	1585	39
298.15 K, x1 = 0.2971	1581	51
298.15 K, x1 = 0.4752	1572	114
298.15 K, x1 = 0.6014	1567	170
298.15 K, x1 = 0.8515	1553	410
298.15 K, x1 = 0.9022	1551	450
298.15 K, x1 = 0.9468	1549	490
303.15 K, x1 = 0.056	1556	2.01
303.15 K, x1 = 0.1311	1564	7.8
303.15 K, x1 = 0.3764	1561	40
303.15 K, x1 = 0.4752	1557	65
303.15 K, x1 = 0.6014	1552	108
303.15 K, x1 = 0.7129	1548	198
303.15 K, x1 = 0.8515	1538	300
303.15 K, x1 = 1	1530	380
308.15 K, x1 = 0.056	1536	2.01
308.15 K, x1 = 0.0914	1540	2.5
308.15 K, x1 = 0.1311	1544	3.4
308.15 K, x1 = 0.1773	1548	6.4
308.15 K, x1 = 0.2318	1549	8.9
308.15 K, x1 = 0.2971	1546	13.9
308.15 K, x1 = 0.3764	1542	20.5
308.15 K, x1 = 0.4752	1539	31
308.15 K, x1 = 0.6014	1536	67
308.15 K, x1 = 0.7129	1533	131
308.15 K, x1 = 0.8086	1528	192
308.15 K, x1 = 0.8515	1524	221
308.15 K, x1 = 0.9022	1522	245
308.15 K, x1 = 0.9468	1519	270
308.15 K, x1 = 1	1514	290
313.15 K, x1 = 0.0914	1536	2.21
313.15 K, x1 = 0.1311	1539	3.2
313.15 K, x1 = 0.2318	1542	6.8
313.15 K, x1 = 0.2971	1539	12.1
313.15 K, x1 = 0.3764	1535	15.2
313.15 K, x1 = 0.4752	1531	17.7
313.15 K, x1 = 0.6014	1526	45
313.15 K, x1 = 0.7129	1522	95
313.15 K, x1 = 0.8086	1517	144
313.15 K, x1 = 0.8515	1515	166
313.15 K, x1 = 0.9022	1509	186
313.15 K, x1 = 0.9468	1507	201
313.15 K, x1 = 1	1499	217
318.15 K, x1 = 0.056	1511	1.1
318.15 K, x1 = 0.0914	1518	2.5
318.15 K, x1 = 0.1311	1522	4.5
318.15 K, x1 = 0.1773	1523	6.4
318.15 K, x1 = 0.2971	1521	10.2
318.15 K, x1 = 0.3764	1518	12.1
318.15 K, x1 = 0.4752	1515	12.3
318.15 K, x1 = 0.6014	1511	32
318.15 K, x1 = 0.8515	1502	128
318.15 K, x1 = 0.9022	1498	144
318.15 K, x1 = 0.9468	1495	159
318.15 K, x1 = 1	1486	169
323.15 K, x1 = 0.056	1506	1.11
323.15 K, x1 = 0.1311	1517	3.8
323.15 K, x1 = 0.1773	1518	5.7
323.15 K, x1 = 0.2318	1518	10.1
323.15 K, x1 = 0.2971	1515	11.1
323.15 K, x1 = 0.3764	1512	13.1
323.15 K, x1 = 0.4752	1508	13.2
323.15 K, x1 = 0.7129	1499	59
323.15 K, x1 = 0.8086	1495	88
323.15 K, x1 = 0.8515	1491	103
323.15 K, x1 = 0.9022	1488	116
323.15 K, x1 = 0.9468	1484	124
323.15 K, x1 = 1	1472	133
